Blank lines part the entries; values can stand above or below the molecule they belong to.
How the values were obtained:
[1] = type: in vitro ADME, rat
Method: (§1) Aliquots were withdrawn at various time intervals and examined by HPLC [PRP-1 column; water-acetonitrile gradient; 25 mM ammonium formate, pH 7 mobile phase].

[2] = Hydrolysis of the esters in pH 7.4 HEPES buffer; type: physicochemical; conditions: pH 7.4, 25° C., each step
Method: as §1

[3] = Comparative MRI of two preparations of Gd-DTPA-bis(phenylalanine ethyl ester) (Example 11); type: in vivo, mice
Method: FIG. 8 is a photograph of T1-weighted magnetic resonance images obtained as in FIG. 6, except that a different preparation of Gd-DTPA-bis(phenylalanine ethyl ester) (sometimes abbreviated Gd-DTPA-(PheOEt)2) was used.
Freshly prepared material, whose pH was carefully adjusted to neutrality, and which was stored in the cold, was determined to be about 90% Gd-DTPA-(PheOEt)2, the remainder being mostly Gd-DTPA-(PheOEt) (Phe).

[4] = T1-weighted spin-echo MRI of a rat, region-of-interest % enhancement (Examples 8 and 9); type: in vivo, Sprague-Dawley rat
Method: FIG. 5 is a photograph of T1-weighted magnetic resonance images of a rat obtained before, and at 0, 5, 10, 15, 25, 45 and 60 minutes after the injection of Gd-DTPA-bis(phenylalanine) at a dose of 0.1 mmol/kg body weight. The images are 60 mm×60 mm×3 mm thick slices in the coronal plane. The region covered extends from just above the heart to somewhat below the liver. Imaging parameters are indicated along the left of the Figure and include the repetition time ([…]), echo time (6000 microseconds), number of signal averages (4), and the image matrix size (128×256).
FIGS. 6A and 6B are photographs of T1-weighted magnetic resonance images obtained as described in FIG. 5A and 5B, except that Gd-DTPA-bis(phenylalanine ethyl ester) was used as the contrast agent.
A 300-g male Sprague-Dawley rat was anesthetized with an intraperitoneal injection of a mixture of ketamine and diazepam, and a catheter was inserted into a lateral tail vein. The rat was then placed in a 5-cm inside diameter (i.d.) imaging coil in the bore of a 2-Tesla imager-spectrometer system (GE CSI; General Electric Co., Fremont, Calif.). A T1-weighted spin-echo image of the animal's abdomen in the coronal plane was then obtained (TR 300 ms; Te 6 ms; 128-256 image matrix; NEX=4; 3 mm slice thickness). Next, 0.6 g of the Gd-DTPA-bis(phenylalanine) solution described in Example 7 was injected via the catheter. A series of post-injection images were obtained. […] See also, FIGS. 5A and 5B.
The imaging was carried out analogously to Example 8. […] See also, FIGS. 6A and 6B.

[5] = test system: liver transport system or systems inhibitable by BSP; conditions: cited from earlier work
[6] = In vivo MRI, % enhancement by region of interest (Example 19); parameters: species or system Sprague-Dawley rats
Method: Magnetic resonance imaging was carried out using a CSI 2-Tesla imager (GE, Inc., Fremont, Calif.) equipped with a 5-cm diameter distributed-capacitance imaging coil. A T1-weighted (TR 300/TE 6; NEX 4) spin-echo sequence was used.
Sprague-Dawley rats (250-350 g; n=4 for each contrast agent) were anesthetized with ketamine (90 mg/kg) and diazepam (10 mg/kg) and fitted with an intravenous catheter in a lateral tail vein. Anesthesia was maintained during imaging using pentobarbital delivered via an intraperitoneal catheter.
The anesthetized animal was placed in the imaging coil and secured with tape. The coil containing the animal then was placed in the magnet bore, and the magnetic field was shimmed. Pre-contrast images were obtained. The contrast agent (100 μmol/kg) then was injected via the tail-vein catheter, and additional images were obtained at various intervals for up to 90 min post injection.
Contrast agent enhancement was determined by measuring the mean signal intensity (SI) in operator-designated regions of interest (ROI). These were normalized to the pre-injection value for each ROI according to the following formula:
% Enhancement=100×(SIpost -SIpre)/SIpre

[7] = T1-weighted spin-echo, 0.5 Tesla; cited from earlier work
[8] = in vivo; cited from earlier work
[9] = rat, in vivo, 6 h; cited from earlier work
[10] = more pure preparation (about 90% bis ester)
[11] = partially hydrolyzed material of FIG. 6 (ca. 45% bis ester)

t1/2 of ester hydrolysis in rat plasma [1]: None Detected
half-time of hydrolysis in aqueous buffer [2]: of the order of days
SMILES: CCOC(=O)[C@@H](Cc1ccccc1)NC(=O)CN(CCN(CCN(CC(=O)[O-])CC(=O)N[C@H](Cc1ccccc1)C(=O)OCC)CC(=O)[O-])CC(=O)[O-].[Gd+3] [Gd-DTPA-(D-PheOEt)2, Gd(III)-DTPA-bis(D-phenylalanine ethyl ester)]
ester hydrolysis in rat plasma (in words) [1]: resistant to even the first step of ester hydrolysis

ester hydrolysis in rat plasma (in words) [1]: very rapidly hydrolyzed in rat plasma
half-time of hydrolysis in aqueous buffer [2]: of the order of days
SMILES: CCOC(=O)[C@H](Cc1ccccc1)NC(=O)CN(CCN(CCN(CC(=O)[O-])CC(=O)N[C@@H](Cc1ccccc1)C(=O)OCC)CC(=O)[O-])CC(=O)[O-].[Gd+3] [Gd-DTPA-bis(phenylalanine ethyl ester), Gd(III)-DTPA-bis(L-phenylalanine ethyl ester)]
heart enhancement [3, 10]: 74%
liver enhancement [3, 10]: 163%
factor by which degree of liver enhancement was greater ([3]; more pure preparation vs FIG. 6 material): about three
heart enhancement [3, 11]: 84%
liver enhancement [3, 11]: 53%
image enhancement (in words) ([4]; 2 Tesla, about 0.1 mmol/kg): different apparent enhancement in the liver and heart
image region-of-interest % enhancement ([4]; heart, 0-3 min post-injection): 86%
image region-of-interest % enhancement ([4]; heart, 5-8 min post-injection): 46%
image region-of-interest % enhancement ([4]; heart, 15-18 min post-injection): 66%
image region-of-interest % enhancement ([4]; heart, 25-38 min post-injection): 48%
image region-of-interest % enhancement ([4]; heart, 45-48 min post-injection): 49%
image region-of-interest % enhancement ([4]; heart, 60-63 min post-injection): 25%
image region-of-interest % enhancement ([4]; liver, 0-3 min post-injection): 70%
image region-of-interest % enhancement ([4]; liver, 5-8 min post-injection): 109%
image region-of-interest % enhancement ([4]; liver, 15-18 min post-injection): 113%
image region-of-interest % enhancement ([4]; liver, 25-38 min post-injection): 99%
image region-of-interest % enhancement ([4]; liver, 45-48 min post-injection): 71%
image region-of-interest % enhancement ([4]; liver, 60-63 min post-injection): 44%
image region-of-interest % enhancement ([4]; muscle (Table 3: skeletal muscle), 0-3 min post-injection): 50%
image region-of-interest % enhancement ([4]; muscle (Table 3: skeletal muscle), 5-8 min post-injection): 30%
image region-of-interest % enhancement ([4]; muscle (Table 3: skeletal muscle), 15-18 min post-injection): 31%
image region-of-interest % enhancement ([4]; muscle (Table 3: skeletal muscle), 25-38 min post-injection): 26%
image region-of-interest % enhancement ([4]; muscle (Table 3: skeletal muscle), 45-48 min post-injection): 16%
image region-of-interest % enhancement ([4]; muscle (Table 3: skeletal muscle), 60-63 min post-injection): 16%

SMILES: CC(=O)N([O-])CCCCCNC(=O)CCC(=O)N([O-])CCCCCNC(=O)CCC(=O)N([O-])CCCCCNC(=O)CC(CC(=O)[O-])c1ccccc1.[Fe+3].[H+] (stereo not shown) [Fe-PGDF]
liver transport (in words) [5]: transported in the liver by a system or systems inhibitable by BSP

SMILES: COc1ccc(CCNC(=O)CN(CCN(CCN(CC(=O)[O-])CC(=O)NCCc2ccc(OC)c(OC)c2)CC(=O)[O-])CC(=O)[O-])cc1OC.[Gd+3] [Gd-DTPA-(3,4-DMPE)2]
lung enhancement ([6]; 100 μmol/kg i.v., n=4): 141%±4%
enhancement of organs (in words) ([6]; MRI of rats): useful enhancement of heart, lungs, kidney and liver

SMILES: CNC[C@H](O)[C@@H](O)[C@H](O)[C@H](O)CO.CNC[C@H](O)[C@@H](O)[C@H](O)[C@H](O)CO.O=C([O-])CN(CCN(CC(=O)[O-])CC(=O)O)CCN(CC(=O)[O-])CC(=O)O.[Gd+3] [Gd-DTPA, gadolinium (III) complex of diethylenetriaminepentaacetic acid]
signal enhancement in liver [7]: 16%
distribution (in words) [8]: distributes in blood plasma and extracellular fluid

SMILES: O=C([O-])C(NCCNC(C(=O)[O-])c1ccccc1[O-])c1ccccc1[O-].[Fe+3] (stereo not shown) [Fe-EHPG]
liver transport (in words) [5]: transported in the liver by a system or systems inhibitable by BSP

SMILES: O=C([O-])CN(CCN(CC(=O)[O-])CC(=O)[O-])CCN(CC(=O)[O-])C(COCc1ccccc1)C(=O)[O-].[Gd+3] (stereo not shown) [Gd-BOPTA]
signal enhancement in liver [7]: 48%
biliary excretion [9]: 38.6 % of injected dose

Source: US5562894A, “Amino-acyl-type and catecholamine-type contrast agents for MRI” (Regents of the University of California, priority 1993, dated 1996)
